In patent US10172797B2, “Extruded extended release abuse deterrent pill” (Pharmaceutical Manufacturing Research Services, Inc., priority 2013, dated 2019):

How the values were obtained:
[1] = cited from earlier work
[2] = Alcohol solubility tested (200 proof ethanol, 0.22 micrometer PTFE filter); assay type: physicochemical
From the text: The following table lists the relative solubility of exemplary components of a formulation. A number of different dyes are listed along with their solubility information taken from the various literature sources and tested experimentally (200 proof ethanol and filtered through a 0.22 micrometer PTFE filter).

O=C([O-])C1=NN(c2ccc(S(=O)(=O)[O-])cc2)C(=O)C1N=Nc1ccc(S(=O)(=O)[O-])cc1.[Na+].[Na+].[Na+] (stereo not drawn) [Yellow #5]
Yes: Alcohol Solubility (Literature) [1] | Water Solubility [1] | Alcohol Solubility (tested) [2]

O=C1/C(=C2\Nc3ccc(S(=O)(=O)[O-])cc3C2=O)Nc2ccc(S(=O)(=O)[O-])cc21.[Na+].[Na+] [Blue #2]
Yes: Alcohol Solubility (Literature) [1] | Water Solubility [1] | Alcohol Solubility (tested) [2]

COc1cc(S(=O)(=O)[O-])c(C)cc1N=Nc1c(O)ccc2cc(S(=O)(=O)[O-])ccc12.[Na+].[Na+] [Red #40]
Yes: Alcohol Solubility (Literature) [1] | Water Solubility [1] | Alcohol Solubility (tested) [2]

CCN(Cc1cccc(S(=O)(=O)[O-])c1)c1ccc(C(=C2C=CC(=[N+](CC)Cc3cccc(S(=O)(=O)[O-])c3)C=C2)c2ccccc2S(=O)(=O)[O-])cc1.[Na+].[Na+] [Blue #1]
Yes: Alcohol Solubility (Literature) [1] | Water Solubility [1] | Alcohol Solubility (tested) [2]
